From US20260265184A1, “DEGRADABLE CROSSLINKING AGENT” (NAGASE CHEMTEX CORPORATION, priority 2023, published 2026)

Key:
Type in all cases: physicochemical
[1] = Solubility of the degradable cross-linked product (cured film) in water / organic solvent
Experimental: The solution was applied onto a glass substrate to give a cured film thickness of 0.1 μm, and then dried and cured at 150° C. for 10 minutes to obtain a degradable cross-linked product.

[2] = Degradation of the degradable cross-linked product on immersion in oxidizing agent solution
Experimental: The method for degrading a degradable cross-linked product according to the present invention includes bringing the degradable cross-linked product into contact with an aqueous solution containing an oxidizing agent at 100° C. or lower.
The conditions for bringing the degradable cross-linked product into contact with the aqueous solution containing the oxidizing agent include a temperature of 100° C. or lower, preferably of 15° C. to 50° C. The conditions preferably include a duration of 60 minutes or shorter, more preferably 10 minutes or shorter. If necessary, the cross-linked product may be shaken or stirred during the reaction with the oxidizing agent. Non-limiting specific examples of the method for bringing the degradable cross-linked product into contact with the aqueous solution containing the oxidizing agent include immersing the degradable cross-linked product in the aqueous solution containing the oxidizing agent, or spraying or adding dropwise the aqueous solution containing the oxidizing agent onto the degradable cross-linked product.
An amount of 0.3 g of the compound of formula (A), 0.1 g of poly(methylhydrosiloxane), and 4.0 mg of a platinum catalyst (trade name: CAT-PL-50T, available from Shin-Etsu Chemical Co., Ltd.) were added to 40 g of dimethyl sulfoxide to obtain a thermosetting composition solution. The solution was applied onto a glass substrate to give a cured film thickness of 0.1 μm, and then dried and cured at 150° C. for 10 minutes to obtain a degradable cross-linked product.

[3] = Degradation of the compound on adding sodium hypochlorite aqueous solution; conditions: 3% sodium hypochlorite aqueous solution added to the compound
[4] = Solvent solubility evaluation of the degradable cross-linking agents; conditions: for Solvent solubility, Isopropanol / Solvent solubility, Methanol / Solvent solubility, Methylisobutyl ketone / Solvent solubility, N-methylpyrrolidone / Solvent solubility, Propylene glycol monomethyl ether: 0.5 mL solvent added to 2 mg, visual, room temperature, then heat gun; for Solvent solubility, overall assessment in words: summary over the solvents of Tables 1 and 2
From the text: The degree of dissolution was visually observed. When an undissolved portion remained at room temperature, the mixture was sufficiently heated with a heat gun and then visually observed again. The scoring was as follows: 3 points for those that completely dissolved at room temperature; 2 points for those in which an undissolved portion remained at room temperature but completely dissolved after heating; 1 point for those in which a slight amount of an undissolved portion remained after heating; and 0 points for those in which a large amount of an undissolved portion remained after heating. Here, the degradable cross-linking agents in liquid form were evaluated for compatibility with the solvents.

[5] = cured film immersed in 3% sodium hypochlorite aqueous solution

Row | Compound | Solubility of the degradable cross-linked product made with the compound ([1]; in water) | Degradation of the degradable cross-linked product made with the compound [2, 5] | Degradation of the compound by oxidizing agent [3] | Solvent solubility, Isopropanol [4] | Solvent solubility, Methanol [4] | Solvent solubility, Methylisobutyl ketone [4] | Solvent solubility, N-methylpyrrolidone [4] | Solvent solubility, Propylene glycol monomethyl ether [4] | Solubility of the degradable cross-linked product made with the compound ([1]; in THF and water) | Degradation of the degradable cross-linked product made with the compound ([2]; cured film immersed in 3-fold dilution of a 3% sodium hypochlorite aqueous solution with THE) | Solvent solubility, overall assessment in words ([4]; listed as Example 9) | Solvent solubility, overall assessment in words [4] | Solubility of the degradable cross-linked product made with the compound ([1]; in isopropanol and water) | Degradation of the degradable cross-linked product made with the compound ([2]; cured film immersed in 2-fold dilution of a 3% sodium hypochlorite aqueous solution with isopropanol) | Solvent solubility, overall assessment in words ([4]; listed as Example 8)
1 | C=CCNC(=O)NNC(=O)CCCCCCCCC(=O)NNC(=O)NCC=C [Formula (B)] | insoluble | foaming and removal of the product from the substrate were observed | foaming and degradation of the compound were observed | 1 | 2 | 0 | 3 | 0 |  |  |  |  |  |  | 
2 | O=C(CCCCCOC(=O)NNC(=O)OCCO)NNC(=O)c1cccc(C(=O)NNC(=O)CCCCCOC(=O)NNC(=O)OCCO)c1 [Formula (M)] |  |  | foaming and degradation of the compound were observed | 0 | 3 | 0 | 3 | 3 | insoluble | foaming and removal of the product from the substrate were observed |  |  |  |  | 
3 | C=CCOC(=O)NNC(=O)CCCCCCCCC(=O)NNC(=O)OCC=C [Formula (D)] | insoluble | foaming and removal of the product from the substrate were observed | foaming and degradation of the compound were observed | 3 | 3 | 2 | 3 | 3 |  |  |  |  |  |  | 
4 | O=C(CCS)NNC(=O)NCCCCCCNC(=O)N(CCCCCCNC(=O)NNC(=O)CCS)C(=O)NCCCCCCNC(=O)NNC(=O)CCS [Formula (J)] | insoluble | foaming and removal of the product from the substrate were observed | foaming and degradation of the compound were observed | 1 | 1 | 0 | 1 | 0 |  |  | slightly less soluble than the compound of Example 3 but exhibited an acceptable level of solubility |  |  |  | 
5 | C=CCOC(=O)NNC(=O)NCCCCCCNC(=O)NNC(=O)OCC=C [Formula (C)] | insoluble | foaming and removal of the product from the substrate were observed | foaming and degradation of the compound were observed | 1 | 2 | 0 | 3 | 2 |  |  |  |  |  |  | 
6 | C=CCOC(=O)NNC(=O)CCC(NC(=O)NNC(=O)CCCC(=O)NNC(=O)NC(CCC(=O)NNC(=O)OCC=C)C(=O)NNC(=O)OCC=C)C(=O)NNC(=O)OCC=C (stereo not drawn) [Formula (L)] | insoluble | foaming and removal of the product from the substrate were observed | foaming and degradation of the compound were observed | 1 | 2 | 1 | 3 | 3 |  |  |  |  |  |  | 
7 | C=CCCC(=O)NNC(=O)CCCCCCCCC(=O)NNC(=O)OCC=C [Formula (A), reference compound] | insoluble | foaming and removal of the product from the substrate were observed | foaming and degradation of the compound were observed | 0 | 0 | 0 | 0 | 0 |  |  |  | poorly soluble in all the solvents |  |  | 
8 | C=C(C)C(=O)OCCNC(=O)NNC(=O)c1cc(O)cc(O)c1 [Formula (I)] |  |  | foaming and degradation of the compound were observed | 0 | 3 | 0 | 3 | 0 |  |  |  |  | insoluble | foaming and removal of the product from the substrate were observed | slightly less soluble than the compound of Example 3 but exhibited an acceptable level of solubility
9 | C=CCOC(=O)NNC(=O)CCCO [Formula (G)] | insoluble | foaming and removal of the product from the substrate were observed | foaming and degradation of the compound were observed | 3 | 3 | 2 | 3 | 3 |  |  |  |  |  |  | 
